Reference: PubChem BioAssay AID330 (DTP/NCI, 2004)
Several values for one entry are separate records, joined by “and”; a condition that tells them apart may be missing. Identical values can stand only once. Toxic doses and inconclusive results are not listed.

Test system: P388 leukemia ip, CD2F1 mice, survival T/C
Experiment: NCI In Vivo Anticancer Drug Screen. Data for tumor model P388 Leukemia (intraperitoneal) in CD2F1 (CDF1) mice
Conditions: endpoint: median survival time, higher = longer survival
How it was run: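 Mice carrying the transplanted tumor received test compound or vehicle. Survival was recorded in each group, and the value is the treated-group measurement divided by that of the vehicle-treated control group.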

[1] = dose: 50.0 mg/kg/injection, schedule: Q01DX009 (ip), vehicle: saline
[2] = dose: 50.0 mg/kg/injection, schedule: Q01DX009 (ip), vehicle: suspension in saline
[3] = dose: 50.0 mg/kg/injection, schedule: Q01DX005 (ip), vehicle: Klucel (hydroxypropylcellulose) (HPC)
[4] = dose: 100.0 mg/kg/injection, schedule: Q01DX005 (ip), vehicle: Klucel (hydroxypropylcellulose) (HPC)
[5] = dose: 200.0 mg/kg/injection, schedule: Q01DX005 (ip), vehicle: Klucel (hydroxypropylcellulose) (HPC)
[6] = dose: 50.0 mg/kg/injection, schedule: Q01DX009 (ip), vehicle: saline with Tween-80
[7] = dose: 100.0 mg/kg/injection, schedule: Q01DX009 (ip), vehicle: saline with Tween-80
[8] = dose: 200.0 mg/kg/injection, schedule: Q01DX009 (ip), vehicle: saline with Tween-80
[9] = dose: 60.0 mg/kg/injection, schedule: Q01DX005 (ip), vehicle: saline with Tween-80
[10] = dose: 120.0 mg/kg/injection, schedule: Q01DX005 (ip), vehicle: saline with Tween-80
[11] = dose: 240.0 mg/kg/injection, schedule: Q01DX005 (ip), vehicle: saline with Tween-80
[12] = dose: 100.0 mg/kg/injection, schedule: Q01DX009 (ip), vehicle: saline
[13] = dose: 200.0 mg/kg/injection, schedule: Q01DX009 (ip), vehicle: saline
[14] = dose: 60.0 mg/kg/injection, schedule: Q01DX005 (ip), vehicle: saline
[15] = dose: 120.0 mg/kg/injection, schedule: Q01DX005 (ip), vehicle: saline
[16] = dose: 240.0 mg/kg/injection, schedule: Q01DX005 (ip), vehicle: saline

With CCN(CC)C(=O)C(N)Cc1ccc(OC)c(N(CCCl)CCCl)c1 (stereo not given) the T/C (dose: 6.25 mg/kg/injection, schedule: Q01DX009 (ip), vehicle: saline) was 113 % of control, the T/C (dose: 6.25 mg/kg/injection, schedule: Q01DX009 (ip), vehicle: suspension in saline) was 116 % of control and the T/C (dose: 25.0 mg/kg/injection, schedule: Q01DX009 (ip), vehicle: saline) was 150 % of control. For the same compound, the T/C (dose: 25.0 mg/kg/injection, schedule: Q01DX009 (ip), vehicle: suspension in saline) was 150 % of control, the T/C [1] was 177 % of control and the T/C [2] was 172 % of control.
With Cn1c2ccccc2c2[nH]c3ccccc3c(=O)c21 the T/C [3] was 108 % of control and 97 % of control, the T/C [4] was 95 % of control and the T/C [5] was 90 % of control and 96 % of control.
With CCCCCCC(=O)CC(SCC)c1ccccc1 (stereo not given) the T/C [6] was 106 % of control, the T/C [7] was 113 % of control and the T/C [8] was 114 % of control.
N#CC(C#N)=NNc1c(Br)cc(Cl)cc1Br was tested, and the T/C (dose: 1.56 mg/kg/injection, schedule: Q01DX009 (ip), vehicle: Klucel (hydroxypropylcellulose) (HPC)) was 104 % of control, the T/C (dose: 3.12 mg/kg/injection, schedule: Q01DX009 (ip), vehicle: Klucel (hydroxypropylcellulose) (HPC)) was 105 % of control and the T/C (dose: 6.25 mg/kg/injection, schedule: Q01DX009 (ip), vehicle: Klucel (hydroxypropylcellulose) (HPC)) was 116 % of control and 97 % of control.
With C=C1C(=O)OC2CC(C)/C=C\C(=O)C(C)(O)C(O)C(O)C12 (stereo not given) (tested in a mixture with another compound) the T/C (dose: 12.5 mg/kg/injection, schedule: Q01DX001 (ip), vehicle: Klucel (hydroxypropylcellulose) (HPC)) was 113 % of control and the T/C (dose: 25.0 mg/kg/injection, schedule: Q01DX001 (ip), vehicle: Klucel (hydroxypropylcellulose) (HPC)) was 105 % of control.
In the case of OC(C(c1ccccc1)c1ccccn1)(C(F)(F)F)C(F)(F)F (stereo not given), the T/C (dose: 100.0 mg/kg/injection, schedule: Q04DX003 (ip), vehicle: saline with Tween-80) is reported as 100 % of control, the T/C (dose: 200.0 mg/kg/injection, schedule: Q04DX003 (ip), vehicle: saline with Tween-80) is reported as 95 % of control and the T/C (dose: 400.0 mg/kg/injection, schedule: Q04DX003 (ip), vehicle: saline with Tween-80) is reported as 95 % of control.
For CC(=O)N1OCCc2ccccc21, the T/C [9] was 100 % of control, the T/C [10] was 98 % of control and the T/C [11] was 98 % of control.
With CNC(=O)OCc1cc(C)cc(C)c1-c1ccco1 the T/C [6] was 101 % of control, the T/C [7] was 98 % of control and the T/C [8] was 95 % of control.
O=[N+]([O-])c1ccc(N=Nc2ccc(N(CCCl)CCCl)cc2)cc1 was tested, and the T/C (dose: 50.0 mg/kg/injection, schedule: Q04DX003 (ip), vehicle: Klucel (hydroxypropylcellulose) (HPC)) was 100 % of control, the T/C (dose: 100.0 mg/kg/injection, schedule: Q04DX003 (ip), vehicle: Klucel (hydroxypropylcellulose) (HPC)) was 100 % of control and the T/C (dose: 200.0 mg/kg/injection, schedule: Q04DX003 (ip), vehicle: Klucel (hydroxypropylcellulose) (HPC)) was 106 % of control.
Clc1c2ccccc2c(Cl)c2ccccc12 was tested, and the T/C (dose: 100.0 mg/kg/injection, schedule: Q04DX002 (ip), vehicle: saline with Tween-80) was 97 % of control, the T/C (dose: 200.0 mg/kg/injection, schedule: Q04DX002 (ip), vehicle: saline with Tween-80) was 103 % of control and the T/C (dose: 400.0 mg/kg/injection, schedule: Q04DX002 (ip), vehicle: saline with Tween-80) was 96 % of control.
For CC1(C)c2ccccc2N2C(c3ccccc3)=NN(c3ccccc3)C21C (stereo not given), the T/C [9] was 100 % of control and the T/C [10] was 100 % of control.
In the case of CCN1C=C/C(=C\C=C/c2cc[n+](CC)c3ccccc23)c2ccccc21, the T/C (dose: 0.15 mg/kg/injection, schedule: Q04DX003 (ip), vehicle: saline) is reported as 118 % of control, the T/C (dose: 0.22 mg/kg/injection, schedule: Q04DX003 (ip), vehicle: saline) is reported as 118 % of control and the T/C (dose: 0.33 mg/kg/injection, schedule: Q04DX003 (ip), vehicle: saline) is reported as 122 % of control.
In the case of CCOC(=O)c1ccc(OCC#N)cc1, the T/C [3] is reported as 93 % of control, the T/C [4] is reported as 102 % of control and the T/C [5] is reported as 98 % of control.
With O=C(O)c1cccc2c1C(=O)N(c1ccc3c(c1)Cc1ccccc1-3)C2=O the T/C (dose: 25.0 mg/kg/injection, schedule: Q01DX005 (ip), vehicle: Klucel (hydroxypropylcellulose) (HPC)) was 97 % of control, the T/C [3] was 98 % of control and the T/C [4] was 95 % of control. The T/C [5] was 96 % of control.
For O=C(CCBr)N1CCN(C(=O)CCBr)CC1, the T/C (dose: 2.5 mg/kg/injection, schedule: Q01DX009 (ip), vehicle: saline) was 100 % of control, the T/C (dose: 5.0 mg/kg/injection, schedule: Q01DX009 (ip), vehicle: saline) was 104 % of control and the T/C (dose: 5.0 mg/kg/injection, schedule: Q01DX010 (ip), vehicle: Klucel (hydroxypropylcellulose) (HPC)) was 108 % of control. The T/C (dose: 10.0 mg/kg/injection, schedule: Q01DX009 (ip), vehicle: saline) was 112 % of control, the T/C (dose: 10.0 mg/kg/injection, schedule: Q01DX010 (ip), vehicle: Klucel (hydroxypropylcellulose) (HPC)) was 120 % of control and the T/C (dose: 20.0 mg/kg/injection, schedule: Q01DX009 (ip), vehicle: saline) was 112 % of control. The T/C (dose: 40.0 mg/kg/injection, schedule: Q01DX009 (ip), vehicle: saline) was 169 % of control, the T/C (dose: 40.0 mg/kg/injection, schedule: Q01DX010 (ip), vehicle: Klucel (hydroxypropylcellulose) (HPC)) was 171 % of control and the T/C (dose: 80.0 mg/kg/injection, schedule: Q01DX009 (ip), vehicle: saline) was 110 % of control. For the same compound, the T/C (dose: 80.0 mg/kg/injection, schedule: Q01DX010 (ip), vehicle: Klucel (hydroxypropylcellulose) (HPC)) was 91 % of control.
In the case of S, the T/C [7] is reported as 113 % of control, the T/C [8] is reported as 115 % of control and the T/C (dose: 400.0 mg/kg/injection, schedule: Q01DX009 (ip), vehicle: saline with Tween-80) is reported as 113 % of control.
For CCCCc1ccc(C)c(O)c1, the T/C [6] was 110 % of control and the T/C [7] was 98 % of control.
With COC(=O)C(=O)c1c(C(=O)OC)nc2nnc(N)n2c1-c1ccc(Cl)c(Cl)c1 the T/C [9] was 96 % of control, the T/C [10] was 101 % of control and the T/C [11] was 104 % of control.
In the case of COc1cc2ccc(=O)oc2cc1O, the T/C (dose: 3.75 mg/kg/injection, schedule: Q01DX009 (ip), vehicle: saline with Tween-80) is reported as 100 % of control, the T/C (dose: 7.5 mg/kg/injection, schedule: Q01DX009 (ip), vehicle: saline with Tween-80) is reported as 103 % of control and 98 % of control and the T/C (dose: 15.0 mg/kg/injection, schedule: Q01DX009 (ip), vehicle: saline with Tween-80) is reported as 100 % of control and 107 % of control. The T/C (dose: 30.0 mg/kg/injection, schedule: Q01DX009 (ip), vehicle: saline with Tween-80) was 104 % of control and 91 % of control, the T/C [1] was 95 % of control and the T/C [2] was 99 % of control and 106 % of control. For the same compound, the T/C [12] was 100 % of control, the T/C (dose: 100.0 mg/kg/injection, schedule: Q01DX009 (ip), vehicle: suspension in saline) was 104 % of control and 109 % of control and the T/C [13] was 100 % of control. The T/C (dose: 200.0 mg/kg/injection, schedule: Q01DX009 (ip), vehicle: suspension in saline) was 107 % of control and 108 % of control, the T/C (dose: 400.0 mg/kg/injection, schedule: Q01DX009 (ip), vehicle: saline) was 100 % of control and the T/C (dose: 400.0 mg/kg/injection, schedule: Q01DX009 (ip), vehicle: suspension in saline) was 111 % of control.
Cc1ccc(O)c(C2CC(=O)NC(NC#N)=N2)c1 (stereo not given) was tested, and the T/C [1] was 103 % of control, the T/C [12] was 101 % of control and the T/C [13] was 101 % of control.
With O=C1C(N=Nc2ccc(S(=O)(=O)Nc3ccccn3)cc2)C(=O)N(c2ccccc2)C(=S)N1c1ccccc1 the T/C [14] was 95 % of control, the T/C [15] was 104 % of control and the T/C [16] was 100 % of control.
COC(=O)C12C3c4ccccc4C1C2c1ccccc13 (stereo not given) was tested, and the T/C (dose: 100.0 mg/kg/injection, schedule: Q04DX002 (ip), vehicle: saline) was 99 % of control, the T/C (dose: 200.0 mg/kg/injection, schedule: Q04DX002 (ip), vehicle: saline) was 94 % of control and the T/C (dose: 400.0 mg/kg/injection, schedule: Q04DX002 (ip), vehicle: saline) was 96 % of control.
Nn1cnc2nc[nH]c2c1=O was tested, and the T/C (dose: 100.0 mg/kg/injection, schedule: Q01DX001 (ip), vehicle: saline with Tween-80) was 101 % of control, the T/C (dose: 200.0 mg/kg/injection, schedule: Q01DX001 (ip), vehicle: saline with Tween-80) was 104 % of control and the T/C (dose: 400.0 mg/kg/injection, schedule: Q01DX001 (ip), vehicle: saline with Tween-80) was 95 % of control.
For O=C(O)CN1CC(=O)N(c2ccccc2)C1=S, the T/C [1] was 101 % of control, the T/C [12] was 97 % of control and the T/C [13] was 93 % of control.
In the case of COC(=O)CC(=O)C(C)SC (stereo not given), the T/C (dose: 25.0 mg/kg/injection, schedule: Q01DX009 (ip), vehicle: saline with Tween-80) is reported as 100 % of control, the T/C [6] is reported as 109 % of control and the T/C [7] is reported as 97 % of control.
In the case of OC1CC2OC2C1O (stereo not given), the T/C [14] is reported as 103 % of control, the T/C [15] is reported as 111 % of control and the T/C [16] is reported as 111 % of control.
